The values that follow come from article PMC3605511, “Tumor P-Glycoprotein Correlates with Efficacy of PF-3758309 in in vitro and in vivo Models of Colorectal Cancer” (Frontiers in Pharmacology, 2013).

Data set [1] concerns SW480. As to the kind of experiment: Cell proliferation assay, SW480. The data set is classed as cell-based. Conditions: Homo sapiens; SW480, 72 h, SRB assay. As to the method: (§1) Cytotoxic/proliferation effects were determined using the sulforhodamine B (SRB) assay (Skehan et al., [1990]) or by resazurin. Briefly, cells in logarithmic growth phase were transferred to 96 well flat bottom plates with lids. One-hundred microliter cell suspensions containing 1500–5000 viable cells were plated into each well and incubated overnight prior to exposure with increasing concentrations of PF-309 for 3–5 days, dependent upon cell type. Media was removed and cells were fixed with cold 10% trichloroacetic acid for 30 min at 4°C. Cells were then washed with water and stained with 0.4% SRB (Fisher Sci., Pittsburgh, PA, USA) for 30 min at room temperature, washed again with 1% acetic acid, followed by stain solubilization with 10 mM tris at room temperature. The plate was then read on a plate reader (Biotek Synergy 2, Winooski, VT, USA) set at an absorbance wavelength of 565 nm. Cell proliferation curves were derived from the raw absorbance (OD) data.
(§2) Since PF-309 appeared to be a strong P-gp and BCRP substrates, we sought to evaluate if the transporters influenced sensitivity in vitro. We evaluated the sensitivity of CRC cell lines to PF-309 treatment in a panel of 27 lines. Cells were exposed to PF-309 at a range of concentrations for 72 h and cell content measured by SRB assay (see Pitts et al., [2013]). […]

Data set [2] is described as follows: Tumor concentration 6 h after a single dose, P-gp tumor concentration study. As to conditions: single dose 25 mg/kg, 6 h post treatment; SW480 and HCT15 vs GEO and HCT116 xenografts. It counts as in vivo, mice. As to the method: Plasma and tumor samples were collected 1 h post treatment at the end of therapeutic studies or 6 h post treatment for P-gp tumor concentration studies. PF-309 was measured in mouse plasma and tumor tissue using a validated LC/MS/MS assay carried out by the University of Colorado Cancer Center Pharmacology Shared Resource. Positive ion electrospray ionization (ESI) mass spectra were obtained with a 3200 QTrap triple quadrupole mass spectrometer (Applied Biosystems Inc., Foster City, CA, USA) with a turboionspray source interfaced to an Agilent 1200 Series binary HPLC system (Agilent Technologies Inc., Santa Clara, CA, USA), and a HTC-PAL auto-sampler (LEAP Technologies, Carrboro, NC, USA). […]
Finally, we determined if the presence of P-gp affects tumor concentration. We evaluated the tumor concentration in two tumor xenograft lines with high ABCB1 gene expression (SW480 and HCT15) and two tumor xenografts with low ABCB1 gene expression (GEO and HCT116). Tumors from animals treated with a single dose of 25 mg/kg PF-309 were collected 6 h post treatment and concentrations analyzed. […] Tumors were also analyzed by western blot to confirm the presence or absence of P-gp, which agreed with the gene expression data (Figure 7B).

Data set [3] has as its system RKO. As to the kind of experiment: Cell proliferation assay, RKO. The data set is classed as cell-based. As to conditions: Homo sapiens, 72 h, SRB assay. As to the method: as §1, §2

As to `Cc1nc(Nc2n[nH]c3c2CN(C(=O)N[C@H](CN(C)C)c2ccccc2)C3(C)C)c2sccc2n1` [PF-309], the results for the IC50 in data set [1] and in data set [3] were 10.1 ± 2.5 nM and 3.6 ± 0.1 nM, respectively. Also, the “tumor concentration, high tumor P-gp vs low ABCB1 expression” value in data set [2] is given as “∼four fold lower”.
